This is an account of results in patent publication US8222187B2, “Method for improving the phytoremediation of polluted sites by providing plants with exogenous carbohydrates” (Universite de Rennes 1, priority 2003, dated 2012).

pIC50: −log10 of the molar value.

The test system of experiment [1] is Arabidopsis thaliana. The experiment can be described thus: Length of the primary roots of Arabidopsis thaliana after 15 days of culture on agar medium. The format is in vivo. Here is the method:
(§1) Arabidopsis thaliana seeds (Wassilewskija ecotype) were sterilised at the surface according to the standard protocol and then rinsed with absolute ethanol and dried for one night.
(§2) These seeds were cultivated in Petri dishes on a culture medium of Murashige and Skoog (adjusted to a pH of 5.7) containing agar (0.8%). The Petri dishes were stored for 48 h at 4° C. then transferred to 22° C. under a photoperiod of 16 hours per day at 4500 lux. The sucrose and glucose were added to the culture medium, while no sugar was added for the controls.
(§3) A growth parameter (length of the primary roots) and the pigment levels (chlorophylls and carotenoids) were measured after 15 days of culture. The atrazine levels in the plants were also measured after one month of culture.

The subject of experiment [2] is D1 protein of photosystem II. The experiment can be described thus: D1 protein levels by Dot Blot and Western Blot. The format is in vivo, Arabidopsis thaliana. Here is the method:
In another experiment series, Arabidopsis thaliana plants were cultivated in the culture medium described above in the absence of sucrose and in the presence of 10 mM and 80 mM of sucrose, and in the absence of atrazine and in the presence of 0.25 μM and 1 μM of atrazine. To measure the levels of D1 protein (31-kD monomer and 21.5-kD by-products), the membrane proteins of the plants were isolated according to the method of Pilgrim et al. (1998 Plant. J. 13 2-77-186). The levels of the total concentration of the target protein, D1 protein of photosystem II, were measured by Dot Blot analysis. Then, the different forms were analysed by gel electrophoresis separation under denaturing and Western Blot conditions.
For orientation: Immunoblotting shows a protein as a band on a membrane.

For experiment [3], the system named is Arabidopsis thaliana. The experiment can be described thus: Photosynthetic pigment levels (chlorophylls and carotenoids) after 15 days of culture. The experiment is classed as in vivo. Here is the method:
as §1, §2, §3
The photosynthetic pigments (chlorophylls and carotenoids) were extracted by grinding the aerial portions of the plants in 80% acetone and by measuring the absorbance of the extracts corresponding to 663 nm, 646 nm and 470 nm. The levels of these pigments were expressed in μg/mL and determined according to the method of Lichtenthaler et al. (1983 Biochem. Soc. Trans. 11, 591-592).

Another experiment concerns superoxide ion. Put plainly: Superoxide ion production of the plants. The experiment is classed as in vivo, Arabidopsis thaliana. The settings on record: 10 mM sucrose. How it is done:
In addition, the superoxide ion production of the plants was tested according to the method of Fryer et al. (2002 Imaging of photo-oxidative stress responses in leaves—J. Exp. Bot. 53: 1249-1254).

Experiment [4] relates to Arabidopsis thaliana. Put plainly: Arabidopsis culture on humus contaminated with atrazine. The format is in vivo. As to conditions: humus with 10 μM atrazine; sucrose applied to the surface as a 3% solution. How it is done:
Atrazine concentrations were also measured in the plants and the culture medium using conventional methods of extraction with solvents and high-performance liquid chromatography analysis with UV detection. The atrazine was extracted in a methanol and water mixture (4:1, v/v). After centrifugation, the supernatants were filtered on filters of 0.45 μm and the organic solvents were evaporated at 40° C. SPE cartridges were activated by washing with 5 mL or methanol then 5 mL of water. Each sample was applied to a column and the columns were then washed. The atrazine was eluted with 2 mL of dichloromethane. The organic solvents were then evaporated and the dry residues were dissolved in 500 μL of a methanol and water mixture (1:1). The samples were then analysed by HPLC with UV detection. In additional experiments, Arabidopsis thaliana was also cultivated on a humus contaminated at a concentration of 10 μM of atrazine in the absence of sucrose and in the presence of sucrose applied to the surface in the form of a 3% solution. The cultures obtained are shown in FIG. 11, in which the left-hand container corresponds to the culture in the presence of sucrose and the right-hand container corresponds to the culture in the absence of sucrose.

A further experiment deals with T1, photosystem II (Arabidopsis thaliana, UniProt P83755).
T1 construct: from tissue; host or cells: whole Arabidopsis thaliana plants grown on culture medium
Put plainly: Activity of photosystem II monitored by chlorophyll fluorescence. The settings on record: increasing sucrose (10 mM, 80 mM), atrazine 0.25 μM and 1 μM (lethal or sublethal doses without sucrose). The format is in vivo. Here is the method: In another experiment series, Arabidopsis thaliana plants were cultivated in the culture medium described above in the absence of sucrose and in the presence of 10 mM and 80 mM of sucrose, and in the absence of atrazine and in the presence of 0.25 μM and 1 μM of atrazine. […] The activity of photosystem II is monitored by measuring the fluorescence of the chlorophylls.

Where [5] appears, read: absence of sugars in the culture medium.

As to `CCNc1nc(Cl)nc(NC(C)C)n1` [atrazine, 2-chloro-4-ethylamino-6-isopropylamine-1,3,5-triazine], the “effect on the length of the primary roots” value in the experiment with Arabidopsis thaliana [1] (1 to 10 μM atrazine, in the presence of 80 mM sucrose or 80 mM glucose) was “inhibiting but non-lethal effect”. The pIC50 in the experiment on Arabidopsis thaliana [1] (Arabidopsis thaliana, absence of sugars in the culture medium, hyperbolic regression curve (R^2=0.93), read-out: I50 for the atrazine inhibition of primary root length) is 6.92. Besides, in the experiment on Arabidopsis thaliana [1] (setting [5]), the “concentration at which inhibition of root development is complete, with discolouring and death of the plants” value came to 500 nM. For the same compound, the “effect on root growth” value in the experiment with Arabidopsis thaliana [1] (atrazine concentrations higher than 10 μM, in the presence of 80 mM sucrose or 80 mM glucose) was “paradoxically enable the root growth to improve”. For the same compound, the “effect on D1 protein (Dot Blot, all D1 proteins)” value in experiment [2] (1 μM atrazine, plants not cultivated in the presence of sucrose) was “causes the disappearance of the D1 protein”. Besides, the “concentration at which chlorophylls and carotenoids disappear completely” value in the experiment with Arabidopsis thaliana [3] (setting [5]) is 500 nM. Besides, in the experiment on Arabidopsis thaliana [3] (in the presence of 80 mM sucrose or 80 mM glucose), the “effect on levels of chlorophylls and carotenoids in the leaves” value was “the production of these pigments is not suppressed”. In addition, in the experiment on superoxide ion (increasing atrazine levels), the “effect on superoxide ion production” value is recorded as “appears to increase in the presence of atrazine”.
Take `OC[C@H]1O[C@@](CO)(O[C@H]2O[C@H](CO)[C@@H](O)[C@H](O)[C@H]2O)[C@@H](O)[C@@H]1O` [sucrose]: the “seedlings on contaminated humus with sucrose compared with no sucrose” value in the experiment with Arabidopsis thaliana [4] was “more numerous and larger”. In addition, the “increase in root growth at higher atrazine concentrations, sucrose compared with glucose” value in the experiment on Arabidopsis thaliana [1] (80 mM sugar) was “greater in the presence of sucrose than in the presence of glucose”. Besides, the “effect on activity of photosystem II” value at photosystem II was “contribute to maintaining the activity of photosystem II”. The “effect on D1 protein and by-products (Western Blot)” value was “The same effect was observed” in experiment [2] (10 mM sucrose, 1 μM atrazine); “causes a decrease in the D1 protein” in experiment [2] (80 mM sucrose, 1 μM atrazine); “greater accumulation of the D1 protein and its by-products” in experiment [2] (sucrose in the culture medium, 0.25 μM atrazine). In experiment [2] (80 mM sucrose, atrazine concentrations at which the monomer disappears without sucrose), the “effect on monomer of the D1 protein (Western Blot)” value was “maintain a sufficient amount of monomer of the D1 protein”. The “effect on D1 protein (Western Blot)” value in experiment [2] (high sucrose concentrations, absence of atrazine) is reported as “decrease in D1 protein production”. The “effect of sucrose on production of active oxygen species such as the superoxide ion” value in the experiment on superoxide ion (in the presence of atrazine) was “does not prevent the production”.
